Laboratory results as given in ChEMBL document CHEMBL1201862, “PubChem BioAssay data set” (2004).
Calls of active or inactive are those of the source.

Tests used:
[1] = P. falciparum ATP4 D1247Y mutant growth inhibitors, dose response, NITD609-resistant line, SYBR Green, dry powder (AID 1159571); type: functional, cell-based;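 also: parasites synchronized at ring stage by sorbitol before testing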
[2] = P. falciparum Dd2 growth inhibitors, dose response, SYBR Green, cherry-picked samples (AID 1159567); type: functional, cell-based
[3] = P. falciparum 3D7-ScDHODH growth inhibitors, dose response, SYBR Green, dry powder samples (AID 1159570); type: functional, cell-based;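 also: parasite growth measured after 72 hours of compound exposure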
[4] = P. falciparum Dd2 growth inhibitors, dose response, SYBR Green, dry powder samples (AID 1159566); type: functional, cell-based;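 also: potency for growth inhibition with lower SYBR green DNA signal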
[5] = HepG2 cell cytotoxicity, dose response, cytotoxicity control, plate reader, dry powder samples (AID 1159569); type: functional, cell-based;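 also: inhibitor potency with signal falling toward the positive control level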
[6] = target: T1, Replicative DNA helicase DnaB (Mycobacterium tuberculosis, UniProt P9WMR3); assay: DnaB intein splicing inhibitors, dose response, biochemical, cell-free fluorescence (AID 449749); type: functional
T1 sequence (P9WMR3 whole entry): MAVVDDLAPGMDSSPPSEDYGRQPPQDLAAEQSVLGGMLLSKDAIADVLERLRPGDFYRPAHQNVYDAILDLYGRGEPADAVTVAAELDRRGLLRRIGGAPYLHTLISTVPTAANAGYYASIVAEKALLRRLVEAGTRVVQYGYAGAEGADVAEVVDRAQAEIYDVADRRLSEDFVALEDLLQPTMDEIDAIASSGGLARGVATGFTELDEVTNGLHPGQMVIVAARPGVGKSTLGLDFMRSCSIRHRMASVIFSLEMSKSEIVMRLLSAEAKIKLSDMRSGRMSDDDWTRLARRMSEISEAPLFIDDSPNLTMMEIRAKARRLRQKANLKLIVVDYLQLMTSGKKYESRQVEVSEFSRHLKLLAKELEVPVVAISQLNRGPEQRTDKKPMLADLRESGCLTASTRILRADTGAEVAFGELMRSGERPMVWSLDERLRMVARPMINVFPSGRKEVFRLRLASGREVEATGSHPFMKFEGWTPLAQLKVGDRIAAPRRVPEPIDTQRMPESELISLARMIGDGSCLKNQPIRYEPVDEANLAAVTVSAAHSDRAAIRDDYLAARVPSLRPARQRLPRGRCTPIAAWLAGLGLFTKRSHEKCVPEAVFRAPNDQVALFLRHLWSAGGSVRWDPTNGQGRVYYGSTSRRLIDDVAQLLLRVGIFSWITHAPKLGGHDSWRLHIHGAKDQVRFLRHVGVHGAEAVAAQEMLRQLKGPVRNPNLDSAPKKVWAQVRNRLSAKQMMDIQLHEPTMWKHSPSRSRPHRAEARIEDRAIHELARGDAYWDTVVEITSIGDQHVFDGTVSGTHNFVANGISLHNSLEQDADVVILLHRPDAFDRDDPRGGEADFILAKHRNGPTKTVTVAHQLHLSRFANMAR

[7] = non-specific cell cytotoxicity, dose response, cytotoxicity control for PAX8 inhibitor project, plate reader, dry powder samples (AID 743021); type: functional, cell-based
Paired box protein Pax-8 = Paired box protein Pax-8 (Homo sapiens, UniProt Q06710); assay: inhibitors of PAX8-driven TPO luciferase reporter, dose response, RMG-I cells, cherry-pick (AID 687027); type: functional, cell-based;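 also: luciferase reporter driven by Pax8 target thyroperoxidase promoter measured by SteadyGlo luminescence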
Protein RecA = target: T2, Protein RecA (Mycobacterium tuberculosis, UniProt P9WHJ3); assay: Fluorescence Cell-Free Homogeneous Dose Retest to Identify Inhibitors of RecA-Intein Splicing Activity. [Related pubchem assays (depositor defined):AID2097, AID2223, AID489010, AID492950]; type: functional
T2 sequence (P9WHJ3 whole entry): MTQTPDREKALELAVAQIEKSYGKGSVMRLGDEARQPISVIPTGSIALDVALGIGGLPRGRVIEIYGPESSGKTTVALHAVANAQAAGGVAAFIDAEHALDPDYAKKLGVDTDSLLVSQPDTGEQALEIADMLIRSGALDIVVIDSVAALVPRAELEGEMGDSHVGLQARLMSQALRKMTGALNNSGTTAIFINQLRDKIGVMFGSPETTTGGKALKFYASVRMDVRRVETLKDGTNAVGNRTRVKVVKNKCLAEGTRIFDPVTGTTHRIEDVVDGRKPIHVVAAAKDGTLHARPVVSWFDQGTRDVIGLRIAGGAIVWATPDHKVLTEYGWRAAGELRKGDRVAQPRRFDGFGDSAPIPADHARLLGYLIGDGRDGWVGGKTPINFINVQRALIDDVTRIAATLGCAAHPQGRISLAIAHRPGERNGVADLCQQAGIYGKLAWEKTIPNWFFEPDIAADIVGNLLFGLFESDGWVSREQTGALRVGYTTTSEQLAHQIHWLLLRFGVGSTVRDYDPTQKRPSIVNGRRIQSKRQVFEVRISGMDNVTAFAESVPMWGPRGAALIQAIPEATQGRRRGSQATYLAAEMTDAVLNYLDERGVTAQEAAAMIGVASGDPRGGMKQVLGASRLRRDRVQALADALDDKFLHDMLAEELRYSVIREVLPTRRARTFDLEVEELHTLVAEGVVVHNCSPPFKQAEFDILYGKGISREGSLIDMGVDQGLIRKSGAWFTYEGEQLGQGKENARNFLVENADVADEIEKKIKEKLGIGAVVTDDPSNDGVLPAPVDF

[8] = target: T3, Polyadenylate-binding protein 1 (Homo sapiens, UniProt P11940); assay: PABP1 MLLE–PAM2 binding inhibitor potency, dose response, biochemical, fluorescence polarization, FITC-PAM2 peptide (AID 602259); type: functional; details: read-out: IC50_Mean
[9] = target: T3, Polyadenylate-binding protein 1; assay: PABP1 MLLE–PAM2 interaction inhibitors, dose response, miRNA deadenylation inhibitor project, biochemical, fluorescence polarization, Cy5-PAM2 peptide, secondary (AID 602260); type: functional; details: read-out: IC50_Mean
[10] = target: E3 ubiquitin-protein ligase Mdm2 (Homo sapiens, UniProt Q00987); assay: enhancers of MDM2-luciferase reporter signal, concentration-effect titration, project on inhibitors of MDM2 ubiquitin ligase, cellular assay, luminescent readout, 384-well plate format (AID 1394); type: functional;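 also: MDM2 E3 inhibitors raise luminescence so EC50 is for signal enhancement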
[11] = target: Heat shock protein HSP 90-alpha (Homo sapiens, UniProt P07900); assay: Luminescence-based dose response biochemical high throughput screening assay for inhibitors of the Heat Shock Protein 90 (HSP90). [Related pubchem assays: 1831 (Summary AID.), 1846 (Confirmation screen.), 1789 (Primary screen.)]
[12] = microbe, parasite or virus in culture; type: functional; details: Mycobacterium tuberculosis
[13] = target: Disintegrin and metalloproteinase domain-containing protein 17 (Homo sapiens, UniProt P78536); assay: ADAM17 protease inhibitors, dose response, counter-screen for ADAM10 exosite inhibitor project, biochemical, quenched FRET substrate (AID 743253)
[14] = cytotoxicity toward NIH3T3 fibroblasts, dose response, counter-screen, cell-based, ATP luminescence, mouse fibroblasts (AID 2010); type: functional;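 also: cells exposed to compound for about 90 hours before reading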
Streptococcus = assay: Group A Streptococcus viability loss, dose response, counter-screen for streptokinase expression inhibitor project, luminescence, BacTiterGlo (AID 1915); type: functional, organism-based;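 also: potency for reduction of bacterial viability or growth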
[15] = test system: Streptococcus sp. 'group A'; assay: growth inhibition of control SK(-) GAS strain, dose response, counter-screen for streptokinase expression inhibitor project, luminescence, kanamycin, BacTiterGlo, confirmation (AID 1900); type: functional, organism-based
[16] = inhibitors of intracellular T. cruzi replication, confirmation, NIH3T3 host cells, beta-gal luminescence (AID 2044); type: functional, cell-based;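 also: intracellular parasites grown in NIH/3T3 mouse fibroblasts as host cells; luminescent beta-galactosidase reporter signal from transgenic T. cruzi replicating inside host cells; inhibitors lower the luminescence signal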
Streptokinase A = target: T4, Streptokinase A (Streptococcus pyogenes serotype M1, UniProt P10520); assay: S. pyogenes streptokinase expression inhibitors, potency, dose response, plasminogen activation absorbance, OD405 (AID 1914); type: functional, Streptococcus pyogenes M1 GAS;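 also: secreted streptokinase activity via plasminogen activation per viability signal from cell pellet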
T4 sequence (P10520 whole entry): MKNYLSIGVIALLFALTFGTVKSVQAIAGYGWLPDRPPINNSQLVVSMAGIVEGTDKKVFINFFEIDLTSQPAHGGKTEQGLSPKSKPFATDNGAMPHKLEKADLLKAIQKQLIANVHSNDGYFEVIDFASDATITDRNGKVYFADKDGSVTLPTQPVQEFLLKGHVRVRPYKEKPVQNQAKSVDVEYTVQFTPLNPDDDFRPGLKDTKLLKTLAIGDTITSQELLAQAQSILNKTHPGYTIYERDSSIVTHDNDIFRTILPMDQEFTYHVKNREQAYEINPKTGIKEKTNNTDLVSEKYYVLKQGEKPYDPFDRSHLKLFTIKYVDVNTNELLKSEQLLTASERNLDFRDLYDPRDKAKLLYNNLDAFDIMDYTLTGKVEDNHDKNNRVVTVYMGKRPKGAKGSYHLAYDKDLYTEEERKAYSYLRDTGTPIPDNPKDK

[17] = HepG2 cell cytotoxicity, dose response, cytotoxicity control, cherry-picked samples (AID 1159577); type: functional, cell-based
[18] = target: T5, Mannose-6-phosphate isomerase (Homo sapiens, UniProt P34949); assay: human PMI inhibitors, high substrate, primary screen, biochemical, fluorescence intensity, high mannose 6-phosphate (AID 1220)
T5 sequence (P34949 whole entry): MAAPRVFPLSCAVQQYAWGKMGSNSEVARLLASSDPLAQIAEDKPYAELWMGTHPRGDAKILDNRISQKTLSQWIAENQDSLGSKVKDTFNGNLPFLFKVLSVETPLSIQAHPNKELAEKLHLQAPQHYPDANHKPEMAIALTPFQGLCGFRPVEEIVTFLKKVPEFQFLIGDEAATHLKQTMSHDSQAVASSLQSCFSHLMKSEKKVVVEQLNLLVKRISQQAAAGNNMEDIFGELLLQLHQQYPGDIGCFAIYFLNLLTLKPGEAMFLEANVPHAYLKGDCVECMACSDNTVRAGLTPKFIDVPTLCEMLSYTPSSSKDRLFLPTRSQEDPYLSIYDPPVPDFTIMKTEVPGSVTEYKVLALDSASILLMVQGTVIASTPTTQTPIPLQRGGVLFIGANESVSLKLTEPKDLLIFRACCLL

[19] = C. albicans growth with fluconazole, confirmation, fluorescence, retest (AID 2467); type: functional, cell-based
[20] = NIH-3T3 fibroblast cytotoxicity, dose response, cytotoxicity control, cell-based, fluorescence, Alamar Blue, secondary assay (AID 2327); type: functional;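 also: NIH-3T3 mouse fibroblasts cultured with fluconazole at 8 µg/mL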
Prothrombin = Prothrombin (Homo sapiens, UniProt P00734); assay: Thrombin 1536 HTS Dose Response Confirmation. [Related pubchem assays: 1046 (Thrombin 1536 HTS; hits were confirmed in this assay)]; type: functional
[21] = A549 cell cytotoxicity, dose response, cytotoxicity control, plate reader, cherry-pick, antagonist series (AID 743412); type: functional, cell-based
[22] = HEK293 cell cytotoxicity, dose response, cytotoxicity control, plate reader, cherry-picked samples (AID 743446); type: functional, cell-based
[23] = LGR2 antagonists, dose response, cell-based, HEK293, CRE-luciferase reporter, cherry pick, set 2 (AID 743343); type: functional;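 also: transfected cells were stimulated with diluted bursicon conditioned medium after compound addition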
[24] = MC4R antagonists, dose response, counter-screen for LGR2 antagonist project, cell-based, plate reader, cherry pick (AID 743444); type: functional;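 also: transfected HEK 293 cells stimulated with alpha-MSH peptide; potency of inhibitors of the alpha-MSH evoked signal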
[25] = Luminescence Cell-Based Dose Response HTS to Identify Activators of Luciferase Translation or Activity in H4 […] Cells. [Related pubchem assays: 1829 (Project Summary), 1814 (Primary HTS)]; type: functional
H4 = assay: Luminescence Cell-Based Dose Response HTS to Identify Activators of 5'UTR Stem-Loop Driven Prion Protein mRNA Translation in H4 Neuroglioblastoma Cells. [Related pubchem assays: 1829 (Project Summary), 1814 (Primary HTS)]; type: functional; details: Homo sapiens

Sequence of E3 ubiquitin-protein ligase Mdm2 (Q00987 whole entry): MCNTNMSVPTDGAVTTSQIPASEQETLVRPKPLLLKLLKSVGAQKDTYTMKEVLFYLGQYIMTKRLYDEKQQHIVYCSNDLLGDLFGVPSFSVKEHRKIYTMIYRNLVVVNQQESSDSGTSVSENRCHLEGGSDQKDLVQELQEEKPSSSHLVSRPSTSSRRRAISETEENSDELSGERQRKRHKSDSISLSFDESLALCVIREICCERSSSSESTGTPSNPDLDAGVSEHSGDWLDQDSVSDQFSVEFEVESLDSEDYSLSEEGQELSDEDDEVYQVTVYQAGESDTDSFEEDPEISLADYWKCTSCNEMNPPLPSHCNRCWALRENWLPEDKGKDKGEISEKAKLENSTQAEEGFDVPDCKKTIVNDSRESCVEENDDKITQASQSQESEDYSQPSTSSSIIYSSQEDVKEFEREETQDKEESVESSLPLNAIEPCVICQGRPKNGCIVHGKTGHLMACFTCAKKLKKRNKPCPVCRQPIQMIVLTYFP
T3 sequence (P11940 whole entry): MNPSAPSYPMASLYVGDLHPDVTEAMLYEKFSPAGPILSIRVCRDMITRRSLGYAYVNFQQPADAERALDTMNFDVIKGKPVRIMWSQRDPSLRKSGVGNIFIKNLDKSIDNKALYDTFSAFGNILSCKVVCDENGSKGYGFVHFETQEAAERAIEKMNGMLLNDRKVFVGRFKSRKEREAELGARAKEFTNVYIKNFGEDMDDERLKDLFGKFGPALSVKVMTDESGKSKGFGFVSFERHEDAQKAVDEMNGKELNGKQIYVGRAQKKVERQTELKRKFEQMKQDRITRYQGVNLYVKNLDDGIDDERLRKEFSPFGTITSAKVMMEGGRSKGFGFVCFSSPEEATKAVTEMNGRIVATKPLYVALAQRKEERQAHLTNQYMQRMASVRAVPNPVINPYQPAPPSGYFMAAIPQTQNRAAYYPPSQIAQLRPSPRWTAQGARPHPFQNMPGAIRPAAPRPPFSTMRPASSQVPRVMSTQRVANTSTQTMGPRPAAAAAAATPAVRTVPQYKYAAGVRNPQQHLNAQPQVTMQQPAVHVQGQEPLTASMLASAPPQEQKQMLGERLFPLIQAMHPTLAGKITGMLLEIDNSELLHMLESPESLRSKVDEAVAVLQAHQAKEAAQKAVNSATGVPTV
Sequence of Paired box protein Pax-8 (Q06710 whole entry): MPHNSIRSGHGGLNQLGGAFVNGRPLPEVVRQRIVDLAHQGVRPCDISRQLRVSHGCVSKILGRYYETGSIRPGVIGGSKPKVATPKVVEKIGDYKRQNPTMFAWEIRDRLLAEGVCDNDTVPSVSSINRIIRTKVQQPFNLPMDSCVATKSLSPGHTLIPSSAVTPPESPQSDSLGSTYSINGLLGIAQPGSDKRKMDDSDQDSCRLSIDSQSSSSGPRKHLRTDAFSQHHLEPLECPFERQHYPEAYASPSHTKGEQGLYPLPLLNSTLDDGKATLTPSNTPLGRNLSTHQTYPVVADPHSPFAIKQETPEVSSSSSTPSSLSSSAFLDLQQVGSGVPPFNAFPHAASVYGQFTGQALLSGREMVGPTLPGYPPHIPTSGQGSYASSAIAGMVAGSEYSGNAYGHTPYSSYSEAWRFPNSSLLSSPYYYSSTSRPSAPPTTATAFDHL
Sequence of Disintegrin and metalloproteinase domain-containing protein 17 (P78536 whole entry, the tested form may be a part): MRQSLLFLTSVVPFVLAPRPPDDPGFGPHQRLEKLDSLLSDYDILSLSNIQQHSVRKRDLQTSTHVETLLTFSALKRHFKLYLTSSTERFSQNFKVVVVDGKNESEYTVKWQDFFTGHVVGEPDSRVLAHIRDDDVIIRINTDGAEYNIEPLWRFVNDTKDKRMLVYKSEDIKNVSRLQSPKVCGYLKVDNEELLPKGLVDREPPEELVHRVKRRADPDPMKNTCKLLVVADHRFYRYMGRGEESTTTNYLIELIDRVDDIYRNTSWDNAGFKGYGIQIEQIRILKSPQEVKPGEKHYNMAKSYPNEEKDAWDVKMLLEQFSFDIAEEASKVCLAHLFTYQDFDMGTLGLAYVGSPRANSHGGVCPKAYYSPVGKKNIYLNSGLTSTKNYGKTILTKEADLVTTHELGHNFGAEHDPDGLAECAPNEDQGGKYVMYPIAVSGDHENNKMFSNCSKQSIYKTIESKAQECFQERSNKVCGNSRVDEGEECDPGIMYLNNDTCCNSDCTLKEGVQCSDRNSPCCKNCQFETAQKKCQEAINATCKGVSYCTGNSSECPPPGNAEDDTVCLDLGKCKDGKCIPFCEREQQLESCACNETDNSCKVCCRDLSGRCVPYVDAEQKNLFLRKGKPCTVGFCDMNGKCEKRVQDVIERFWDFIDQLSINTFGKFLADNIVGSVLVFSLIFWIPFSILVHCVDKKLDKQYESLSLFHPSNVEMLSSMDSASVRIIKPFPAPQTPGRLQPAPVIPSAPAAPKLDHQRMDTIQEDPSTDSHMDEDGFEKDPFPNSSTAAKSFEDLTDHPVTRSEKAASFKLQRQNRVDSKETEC

COc1ccccc1C#Cc1ccc2c(c1)[C@H]1NCC[C@H]1[C@@H](CO)N2
AC50 [1]: 3.13 µM (active) | AC50 [2]: 2.45 µM (active) | AC50 [3]: 3.54 µM (active) | AC50 [4]: 2.02 µM (active) | AC50 [5]: 38.1 µM (active)

O=C(CCl)N(Cc1ccccc1)c1ccccc1
AC50 [6]: 18.4 µM (active) | AC50 [7]: 9.34 µM (active) | AC50 (Paired box protein Pax-8): 3.95 µM (active) | EC50 (Protein RecA): 0.813 µM (active)

Oc1nc2cc3c(cc2cc1CN(Cc1nnnn1CC1CCCO1)C1CCCC1)OCO3 (stereo not drawn)
IC50 [8]: > 66 µM (inactive) | IC50 [9]: > 66 µM (inactive) | EC50 [10]: 47.2 µM (not active)

O=C(Cc1ccccc1)N1CCN(S(=O)(=O)c2ccc([N+](=O)[O-])cc2)CC1
IC50 [11]: 29.1 µM (not active)

Cc1cc(C)c(CSc2nc(-c3ccc([N+](=O)[O-])cc3)c[nH]2)c(C)c1
CC50 [12]: 22.3 µM (active) | IC50 [13]: > 69.5 µM (inactive) | EC50 [14]: > 60 µM (inconclusive) | EC50 (Streptococcus): 39.4 µM (active) | EC50 [15]: 3.92 µM (active) | EC50 [16]: 3.48 µM (active) | EC50 (Streptokinase A): 10.3 µM (active)

COc1ccc(C#Cc2ccc([C@H]3[C@@H](CO)N4CCCCN(C(=O)Nc5ccccc5F)C[C@H]34)cc2)cc1
AC50 [2]: 1.02 µM (active) | AC50 [17]: 7 µM (active)

COc1ccc(N(/N=C2\Sc3ccccc3C2=O)C(C)=O)cc1
IC50 [11]: 1.96 µM (active)

Cc1cccc(N2C(=O)/C(=C/N3CCN(C(=O)c4ccco4)CC3)C(=O)NC2=S)c1
IC50 [18]: > 50 µM (not active)

CCOC(=O)N1CCN(Cc2ccc(O)c3ncccc23)CC1
EC50 [19]: > 38 µM (not active) | IC50 [18]: 10.6 µM (active) | EC50 [20]: > 150 µM (inactive)

CC(=O)c1c(OC(=O)c2ccco2)c2ccccc2n1C
IC50 (Prothrombin): 3.99 µM (active)

Cc1nnc(SCc2nnc(-c3ccccc3Br)o2)n1-c1ccccc1
IC50 (Prothrombin): > 50 µM (not active)

O=C(Nc1ccc(Cl)cc1Cl)c1ccc2c(c1)OCCO2
AC50 [21]: 42.4 µM (active) | AC50 [22]: > 52 µM (inactive) | AC50 [23]: 6.49 µM (active) | AC50 [24]: 12.9 µM (active)

O=C(C1CCCC1)N1CC[C@@H]2[C@H]1c1cc(-c3cccc(F)c3)ccc1N[C@@H]2CO
AC50 [1]: 0.577 µM (active) | AC50 [2]: 0.996 µM (active) | AC50 [3]: 1.03 µM (active) | AC50 [4]: 0.641 µM (active) | AC50 [5]: 19.9 µM (active)

CO[C@@H]1CN(C)C(=O)c2cc(NC(=O)c3nc4ccccc4s3)ccc2OC[C@H](C)N(Cc2cccnc2)C[C@@H]1C
AC50 [2]: 5.35 µM (active) | AC50 [17]: 33.4 µM (active)

Cc1cccc(Nc2nnc(SCC3CCCCO3)s2)c1 (stereo not drawn)
EC50 [25]: 27.2 µM (active) | EC50 (H4): 21.8 µM (active) | EC50 [10]: 11.2 µM (not active)
